Measured values taken from paper PMC9511493, “2-(Fluoromethoxy)-4′-(S-methanesulfonimidoyl)-1,1′-biphenyl (UCM-1306), an Orally Bioavailable Positive Allosteric Modulator of the Human Dopamine D1 Receptor for Parkinson’s Disease” (Journal of Medicinal Chemistry, 2022).
“And” between values parts separate entries of the source, which are not always exact repeats. Identical values can stand only once.

What was measured:
CYP3A4 = target: T1, CYP3A4 (Homo sapiens, UniProt P08684); assay: cytochrome inhibition, fluorescence assay, CYP3A4; format: in vitro ADME
T1 construct: host or cells: insect cell microsomes
T1 sequence (P08684 whole entry): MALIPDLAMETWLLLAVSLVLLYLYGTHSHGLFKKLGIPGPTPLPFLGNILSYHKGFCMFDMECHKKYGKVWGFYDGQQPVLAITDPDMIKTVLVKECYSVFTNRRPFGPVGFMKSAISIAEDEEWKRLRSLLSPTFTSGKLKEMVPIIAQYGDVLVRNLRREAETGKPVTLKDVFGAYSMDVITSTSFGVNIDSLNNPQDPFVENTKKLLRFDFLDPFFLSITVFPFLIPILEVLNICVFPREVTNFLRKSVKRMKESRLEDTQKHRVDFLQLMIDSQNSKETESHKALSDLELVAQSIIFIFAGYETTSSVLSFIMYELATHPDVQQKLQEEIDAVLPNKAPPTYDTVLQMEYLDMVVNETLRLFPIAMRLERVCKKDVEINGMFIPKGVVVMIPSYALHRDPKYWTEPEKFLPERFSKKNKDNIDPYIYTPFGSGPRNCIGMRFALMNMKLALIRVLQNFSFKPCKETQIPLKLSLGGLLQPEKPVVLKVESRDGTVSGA
Method: (§1) Cytochrome inhibition. The objective of this study was to screen the potential of test […]
(§2) performed using recombinant isoforms CYP1A2, CYP2C9, CYP2C19, CYP2D6, and CYP3A4, and probe substrates with fluorescent detection.
(§3) Assays were conducted in a 200 µL volume in 96-well microtiter plates (COSTAR 3915).
(§4) Addition of cofactor-buffer mixture (KH2PO4 buffer, 1.3 mM NADP, 3.3 mM MgCl2, 3.3 mM glucose -6- phosphate, and 0.4 U/mL glucose -6- phosphate dehydrogenase), supersomes control, standard inhibitors (furafyline, tranylzypromine, ketoconazole, sulfaphenazole, and quinidine from Sigma Aldrich) and test compound to the plate was carried out by a liquid handling station (Zephyr Caliper). The plate was then pre-incubated at 37 °C for 5 min, and the reaction was initiated by the addition of the pr e - warmed enzyme/substrate (E/S) mix. […]
(§5) Fluorescence per well was measured using a fluorescence plate reader (Tecan Infinite M1000 pro) and percentage of inhibition was calculated. hERG ion channel inhibition. […]

hERG potassium channel = target: T2, hERG potassium channel (Homo sapiens, UniProt Q12809); assay: hERG ion channel inhibition (Fluxor potassium assay, CHO cells); format: cell-based; conditions: blockade of the K+ channel current at 10 μM
T2 construct: expressed in transfected cells; host or cells: CHO cell line
T2 sequence (Q12809 whole entry): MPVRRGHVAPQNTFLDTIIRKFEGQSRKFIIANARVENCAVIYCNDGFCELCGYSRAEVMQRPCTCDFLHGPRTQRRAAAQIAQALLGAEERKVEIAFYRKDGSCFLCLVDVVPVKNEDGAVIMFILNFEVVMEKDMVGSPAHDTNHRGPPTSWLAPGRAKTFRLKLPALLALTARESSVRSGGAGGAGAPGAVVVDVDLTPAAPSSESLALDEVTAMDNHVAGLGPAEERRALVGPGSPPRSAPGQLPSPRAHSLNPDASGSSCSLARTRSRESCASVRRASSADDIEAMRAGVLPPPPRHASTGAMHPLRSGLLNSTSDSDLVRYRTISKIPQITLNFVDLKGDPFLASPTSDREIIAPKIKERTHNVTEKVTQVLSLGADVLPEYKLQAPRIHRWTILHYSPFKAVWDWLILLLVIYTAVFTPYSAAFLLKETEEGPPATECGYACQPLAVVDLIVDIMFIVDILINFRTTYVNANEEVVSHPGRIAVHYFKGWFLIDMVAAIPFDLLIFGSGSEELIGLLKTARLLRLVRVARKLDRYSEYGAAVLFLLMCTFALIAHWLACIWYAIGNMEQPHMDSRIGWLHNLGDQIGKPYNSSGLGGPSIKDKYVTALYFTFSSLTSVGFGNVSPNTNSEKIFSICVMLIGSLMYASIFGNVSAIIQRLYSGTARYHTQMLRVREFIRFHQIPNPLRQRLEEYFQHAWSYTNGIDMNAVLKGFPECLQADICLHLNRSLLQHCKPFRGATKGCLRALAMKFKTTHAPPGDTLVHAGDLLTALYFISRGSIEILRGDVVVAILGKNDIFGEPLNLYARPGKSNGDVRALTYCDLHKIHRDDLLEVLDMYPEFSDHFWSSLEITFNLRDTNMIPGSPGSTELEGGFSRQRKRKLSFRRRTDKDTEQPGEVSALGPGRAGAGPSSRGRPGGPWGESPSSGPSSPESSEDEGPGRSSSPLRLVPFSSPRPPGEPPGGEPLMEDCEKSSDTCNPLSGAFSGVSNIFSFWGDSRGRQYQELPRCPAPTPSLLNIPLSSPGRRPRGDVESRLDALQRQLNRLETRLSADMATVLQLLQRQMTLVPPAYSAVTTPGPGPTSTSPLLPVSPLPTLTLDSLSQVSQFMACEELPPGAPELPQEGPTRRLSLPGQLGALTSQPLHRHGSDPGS
Method: CYP1A2 and CYP2C19, 7- methoxy- 4(trifluoromethyl)coumarin for CYP2C9, 3-[2-(N,N- diethyl -N-methylammonium)ethyl]-7- methoxy- 4- methylcoumarin for CYP2D6, and 7- benzyloxytrifluoromethylcoumarin for CYP3A4), to give the final assay concentrations in a reaction volume of 200 µL. Reactions were terminated after specific time for each cytochrome by addition of STOP solution (0.5 M 80:20 ACN/TrisHCl). […]
hERG ion channel inhibition. The assay was carried out using a CHO cell line transfected with the hERG potassium channel. C ells were seeded (2500 cells/well) 72 h before the assay on a 384-well black plate (Greiner 781091). Cell s were maintained at 37 °C in a 5% CO2 atmosphere for 24 h and at 30 °C in a 5% CO 2 atmosphere for 48 h. hERG activity was measured by using the FluxorTM Potassium Ion Chanel Assay Kit (Thermo Fisher F10016). Medium was replaced for 20 µL of loading buffer and cells were incubated for 60 min at 25 °C, protected from direct light. After incubation, l oading buffer was replaced for a ssay buffer and compounds were incubated for 30 min at 25 °C. After this time, 5 µL of stimulus buffer was added to each well and fluorescence was read (λ ex = 490 nm, λem = 525 nm) every second after the establishment of a baseline line using an imaging plate reader system (FDSS7000EX, Hamamatsu®). The fluorescent signal was […]

[1] = target: T3, human serum albumin (HSA) (Homo sapiens, UniProt P02768); assay: HSA binding assay (TRANSIL XL); format: in vitro ADME; conditions: for HSA binding (%): at a concentration of 5 μM
T3 construct: purchased Sovicell TMP-0210-2096
T3 sequence (P02768 25-609): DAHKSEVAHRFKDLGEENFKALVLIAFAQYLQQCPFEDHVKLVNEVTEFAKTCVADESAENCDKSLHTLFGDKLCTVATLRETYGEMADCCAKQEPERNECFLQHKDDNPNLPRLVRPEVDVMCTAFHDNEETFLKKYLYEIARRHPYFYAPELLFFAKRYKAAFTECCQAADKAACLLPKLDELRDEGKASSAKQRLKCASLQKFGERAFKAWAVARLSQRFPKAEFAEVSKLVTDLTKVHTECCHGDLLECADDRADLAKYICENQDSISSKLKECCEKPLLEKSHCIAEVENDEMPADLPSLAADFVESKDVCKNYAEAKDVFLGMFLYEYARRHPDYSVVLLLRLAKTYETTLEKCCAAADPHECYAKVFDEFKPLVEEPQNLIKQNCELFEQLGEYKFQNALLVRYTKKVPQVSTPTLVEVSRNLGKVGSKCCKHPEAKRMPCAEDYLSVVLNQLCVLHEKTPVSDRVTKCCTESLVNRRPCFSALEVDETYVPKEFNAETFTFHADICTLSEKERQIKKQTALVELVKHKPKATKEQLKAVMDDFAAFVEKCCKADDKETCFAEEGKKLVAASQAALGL
Method: HSA binding assay. The assessment of compounds binding to HSA was performed by incubating a fixed concentration of the compound with different concentrations of immobilized HSA, using the TRANSILXL HSA Binding Kit (TMP-0210- 2096, Sovicell). An 8-well unit of the TRANSIL assay plate was used for each compound : six wells contain increasing concentrations of HSA immobilized on silica beads suspended in PBS at pH 7.4, and two wells contain buffer only and serve as references to account for nonspecific binding. The TRANSIL assay plate was thawed for 3 h at rt and centrifuged at 750g for 5 s. Then, 15 μ L of an 80 μ M stock solution of the compound in PBS (for a final concentration of 5 μ M) were added to each well of the 8-well unit, and the plate was incubated on a plate shaker at 1000 rpm for 12 min at rt. After this time, the plate was centrifuged at 750gfor 10 min, and 50 μL of the supernatants were transferred for analytical quantification by HPLC-MS using selected ion monitoring (SIM). The binding percentage was calculated from the remaining free compound concentration in the supernatant of each well, using the spreadsheet and algorithms supplied with the kit.
Stability in mouse serum. Stability for selected compounds and reference compound enalapril was assayed by adding 625 μL of a 250 μM solution of test compound in PBS pH 7.4 to 1.875 mL of mouse serum (Europa Bioproducts, EQSM-0100) pre-warmed a t 37 °C. Next, solutions were incubated at 37 °C for 4 h, taking aliquots of 250 μL at t = 0, 1, 2, 3, and 4 h. Each aliquot was quenched in 375 μL of cold ACN, vortexed, incubated for 10 min in ice and centrifuged at 39000g for 10 min. Supernatants were then analyzed by HPLC-MS using SIM mode, and quantification was estimated by using the peak area integration normalized with an internal standard.
Stability assay in mouse liver homogenate. Stability of test compounds and reference compound propranolol was determined by incubation in liver homogenates following previously reported procedure. […]

stability in mouse serum = format: in vitro ADME; conditions: remaining compound after 4 h
CYP2D6 = target: T4, CYP2D6 (Homo sapiens, UniProt P10635); assay: cytochrome inhibition, fluorescence assay, CYP2D6; format: in vitro ADME
T4 construct: host or cells: insect cell microsomes
T4 sequence (P10635 whole entry): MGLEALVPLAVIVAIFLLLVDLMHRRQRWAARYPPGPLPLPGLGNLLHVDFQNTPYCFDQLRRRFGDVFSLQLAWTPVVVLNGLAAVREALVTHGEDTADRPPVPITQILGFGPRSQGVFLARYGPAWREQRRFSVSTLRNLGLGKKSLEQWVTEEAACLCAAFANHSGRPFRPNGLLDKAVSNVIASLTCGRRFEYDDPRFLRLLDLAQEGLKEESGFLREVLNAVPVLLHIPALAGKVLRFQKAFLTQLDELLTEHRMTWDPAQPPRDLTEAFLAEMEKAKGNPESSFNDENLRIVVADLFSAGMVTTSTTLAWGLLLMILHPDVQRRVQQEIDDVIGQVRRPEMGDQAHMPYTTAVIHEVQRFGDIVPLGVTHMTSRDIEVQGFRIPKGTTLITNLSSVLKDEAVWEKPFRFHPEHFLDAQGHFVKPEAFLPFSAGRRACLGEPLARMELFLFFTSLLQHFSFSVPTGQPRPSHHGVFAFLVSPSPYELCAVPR
Method: as §1, §2, §3, §4, §5

[2] = percentage of inhibition at 10 μM

CYP34A (%) (CYP3A4; [2]) | Kd ([1]; read-out: HSA dissociation constant Kd) | CYP2D6 (%) (CYP2D6; [2]) | SMILES | IC50 (CYP3A4; read-out: CYP34A (IC50)) | hERG inhibition (%) (hERG potassium channel) | HSA binding (%) [1] | mouse serum stability (%) (stability in mouse serum) | CYP2D6 (%) (CYP2D6; Table S1, concentration not given)
 |  |  | O=Cc1ccc(-c2ccccc2OCF)cc1 [Compound 3, 2′-(Fluoromethoxy)[1,1′-biphenyl]-4-carbaldehyde] | 2.82 ± 0.32 µM | 11 ± 2% | > 99% | 50% | inactive
9% and 9 ± 1% | 156 µM | 3% and 3 ± 1% | CS(=N)(=O)c1ccc(-c2ccccc2OCF)cc1 (centres unmarked) [Compound 26, 2-(Fluoromethoxy)-4′-(S-methanesulfonimidoyl)-1,1′-biphenyl] |  | 21% | 79% | 93% | 
